Experimental data: US9050378B2, “N2S2 chelate-targeting ligand conjugates” (Board of Regents, The University of Texas System, priority 2003, dated 2015)

Tests used:
[1] = In vitro cell culture of ^99mTc-EC-DG with or without transition chelators; assay type: cell-based
From the text: It may also be important to include an antioxidant and a transition chelator in the composition to prevent oxidation of the ethylenedicysteine. For example, the antioxidant may be vitamin C (ascorbic acid). However, other antioxidants known to those of ordinary skill in the art, such as tocopherol, pyridoxine, thiamine, or rutin, may also be used. Any transition chelator known to those of ordinary skill in the art may be used in conjunction with the present invention. Examples of transition chelators include glucoheptonate, gluconate, glucarate, citrate, and tartarate.

[2] = test system: A549 human lung cancer tumor; experiment: Tissue distribution in lung tumor-bearing nude mice; assay type: in vivo
Description: Female athymic nude mice (NCr-nu/nu, NCI, Bethasda, Md.) were inoculated with human lung cancer cells (A549 tumor cell line, 3×10^6 cells/mouse, intramuscular) by one author in the mid-dorsal region. After the tumor reached 6 mm, separate biodistribution studies using ^99mTc-EC-DG and 18F-FDG were conducted. Each received ^99mTc-EC-DG or 18F-FDG intravenously (n=3/time point). The injection activity was 1-3 μCi/mouse. The injected mass of ^99mTc-EC-DG was 0.2 mg/rodent.

Compound: O=C(N[C@H]1C(O)O[C@H](CO)[C@@H](O)[C@@H]1O)[C@@H]1C[S][Tc]23(=[O])[S]C[C@@H](C(=O)N[C@H]4C(O)O[C@H](CO)[C@@H](O)[C@@H]4O)[N]2CC[N]13 (some centres unmarked) [^99mTc-EC-DG]
- stability with or without transition chelators (gluconate and glucarate) [1]: does not interfere with the stability
- Blood ([2]; 30 min): 1.607 ± 0.389 % of injected dose per gram of tissue weight
- Brain ([2]; 30 min): 0.058 ± 0.008 % of injected dose per gram of tissue weight
- Heart ([2]; 30 min): 0.611 ± 0.193 % of injected dose per gram of tissue weight
- Intestine ([2]; 30 min): 0.510 ± 0.093 % of injected dose per gram of tissue weight
- Kidney ([2]; 30 min): 6.726 ± 1.842 % of injected dose per gram of tissue weight
- Liver ([2]; 30 min): 5.674 ± 2.089 % of injected dose per gram of tissue weight
- Lung ([2]; 30 min): 1.048 ± 0.259 % of injected dose per gram of tissue weight
- Muscle ([2]; 30 min): 0.264 ± 0.072 % of injected dose per gram of tissue weight
- Spleen ([2]; 30 min): 3.240 ± 1.709 % of injected dose per gram of tissue weight
- Stomach ([2]; 30 min): 0.540 ± 0.113 % of injected dose per gram of tissue weight
- Thyroid ([2]; 30 min): 0.929 ± 0.212 % of injected dose per gram of tissue weight
- Tumor ([2]; 30 min): 0.787 ± 0.163 % of injected dose per gram of tissue weight
- Tumor/Blood ([2]; 30 min): 0.499 ± 0.022
- Tumor/Lung ([2]; 30 min): 0.769 ± 0.047
- Tumor/Muscle ([2]; 30 min): 3.352 ± 0.749
- Blood ([2]; 2 h): 0.977 ± 0.267 % of injected dose per gram of tissue weight
- Brain ([2]; 2 h): 0.042 ± 0.006 % of injected dose per gram of tissue weight
- Heart ([2]; 2 h): 0.336 ± 0.080 % of injected dose per gram of tissue weight
- Intestine ([2]; 2 h): 0.417 ± 0.110 % of injected dose per gram of tissue weight
- Kidney ([2]; 2 h): 5.687 ± 1.540 % of injected dose per gram of tissue weight
- Liver ([2]; 2 h): 5.807 ± 1.708 % of injected dose per gram of tissue weight
- Lung ([2]; 2 h): 0.721 ± 0.210 % of injected dose per gram of tissue weight
- Muscle ([2]; 2 h): 0.148 ± 0.039 % of injected dose per gram of tissue weight
- Spleen ([2]; 2 h): 4.205 ± 1.374 % of injected dose per gram of tissue weight
- Stomach ([2]; 2 h): 0.439 ± 0.138 % of injected dose per gram of tissue weight
- Thyroid ([2]; 2 h): 0.665 ± 0.207 % of injected dose per gram of tissue weight
- Tumor ([2]; 2 h): 0.415 ± 0.123 % of injected dose per gram of tissue weight
- Tumor/Blood ([2]; 2 h): 0.424 ± 0.022
- Tumor/Lung ([2]; 2 h): 0.587 ± 0.046
- Tumor/Muscle ([2]; 2 h): 2.754 ± 0.120
- Blood ([2]; 4 h): 0.787 ± 0.152 % of injected dose per gram of tissue weight
- Brain ([2]; 4 h): 0.042 ± 0.006 % of injected dose per gram of tissue weight
- Heart ([2]; 4 h): 0.318 ± 0.071 % of injected dose per gram of tissue weight
- Intestine ([2]; 4 h): 0.374 ± 0.073 % of injected dose per gram of tissue weight
- Kidney ([2]; 4 h): 4.318 ± 0.890 % of injected dose per gram of tissue weight
- Liver ([2]; 4 h): 6.656 ± 1.786 % of injected dose per gram of tissue weight
- Lung ([2]; 4 h): 0.606 ± 0.128 % of injected dose per gram of tissue weight
- Muscle ([2]; 4 h): 0.147 ± 0.022 % of injected dose per gram of tissue weight
- Spleen ([2]; 4 h): 5.933 ± 3.194 % of injected dose per gram of tissue weight
- Stomach ([2]; 4 h): 0.541 ± 0.119 % of injected dose per gram of tissue weight
- Thyroid ([2]; 4 h): 0.692 ± 0.119 % of injected dose per gram of tissue weight
- Tumor ([2]; 4 h): 0.414 ± 0.161 % of injected dose per gram of tissue weight
- Tumor/Blood ([2]; 4 h): 0.502 ± 0.120
- Tumor/Lung ([2]; 4 h): 0.640 ± 0.120
- Tumor/Muscle ([2]; 4 h): 2.795 ± 0.982
- tumor-to-tissue ratios, ^99mTc-EC-DG versus 18F-FDG ([2]; A549 nude mice, iv): higher tumor/muscle and tumor/brain ratios as a function of time
